# Patent publication US20140315789A1, “ANTIMICROBIAL PEPTIDES AND USES THEREOF” (NEWSOUTH INNOVATIONS PTY LIMITED, priority 2011, published 2014)
# Legend:
# [1] = system: Pseudomonas aeruginosa PA01; assay: Bacterial adhesion to peptide-coated glass surfaces, LIVE/DEAD fluorescence microscopy; assay type: cell-based; settings: P. aeruginosa; for total surface coverage of bacteria / proportion of non-viable cells to total bacteria present / reduction of total surface coverage compared to BLK: peptide attached to maleimide-functionalised glass; for total surface coverage of bacteria: 48 hours incubation, BLK over 21.7%; for proportion of non-viable cells to total bacteria present: BLK 5.8%; for reduction of total surface coverage compared to BLK: versus blank glass
# Method: (§1) Bacterial strains (Staphylococcus aureus strain 38 or Pseudomonas aeruginosa PA01) were streaked onto Chocolate agar (Oxoid, UK) and incubated overnight at 37° C. A single colony was cultured in 10 ml of tryptone soya broth (TSB) (Oxoid, UK) overnight to log phase at 37° C. Optical density of the resulting culture was adjusted to OD660 of 0.1 (corresponding to 1×10^8 cfu/ml) in TSB media (0.25% w/v glucose). Bacterial numbers were confirmed by a retrospective viable count.
# (§2) Glass surfaces were placed in 4 ml of the above culture and incubated at 37° C. with shaking at 60 rpm for 24 hours, then the media was replaced with fresh TSB (4 ml) and incubated for a further 24 hours (total of 48 hours). The samples were then washed with PBS before examination by fluorescent staining
# (§3) Glass samples with adherent bacteria prepared as described above were stained with LIVE/DEAD BacLight Bacterial Viability Kit (Molecular Probes, Inc., OR, USA) according to the manufacturer's directions as described by others for the analysis of biofilms at surfaces (Kirov, Barraud). Microscopic observation and image acquisition was performed with Olympus FV1000 Confocal Inverted Microscope. Images obtained from 10 representative areas on each of triplicate samples for each surface were analysed using Image software (Abramoff et al.); Biophotonics International. 2004, 11(7), pp 36-42 and Rasband et al. Image). Bethesda Md., USA, U.S. National Institutes of Health, 1997 ? 2011, available from http://imagej.hih.gov.au/ij/). The image analysis results were measured as the average area of live cells and the average area of dead cells per field of view and are reported as the average percentage coverage. Prior to comparing the groups, equality of variances was tested using Levene's test. Unequal variances were adjusted by transforming the data using square root transformation. Differences between the groups were analysed using linear mixed model ANOVA, which adjusts the correlation due to repeated observations. Post hoc multiple comparisons were done using Dunnett T3 comparison. Statistical significance was set at 5%.
# (§4) The adhesion of Pseudomonas aeruginosa and Staphylococcus aureus to the modified surfaces was evaluated using fluorescence microscopy. The images obtained were analysed using ImageJ software (Abramoff et al. J. Biophotonics International. 2004, 11(7), pp 36-42 and Rasband et al. ImageJ. Bethesda Md., USA, U.S. National Institutes of Health, 1997-2011, available from http://imagej.hih.gov.au/ij/). The areas of the surfaces covered by bacteria and the relative proportions of bacteria with intact and damaged membranes for each surface were examined by image analysis and the results are shown in FIG. 4.
# [2] = system: Staphylococcus aureus strain 38; assay: as above; assay type: cell-based; settings: S. aureus; for total surface coverage of bacteria / proportion of non-viable bacteria / reduction in total bacteria compared with BLK: peptide attached to maleimide-functionalised glass; for total surface coverage of bacteria: 48 hours incubation, controls more than 16%; for proportion of non-viable bacteria: BLK 2.2%; for reduction in total bacteria compared with BLK: versus blank glass
# Method: as §1, §2, §3, §4
# [3] = surface-attached, fold versus CysC
Sequence,total surface coverage of bacteria [1],proportion of non-viable cells to total bacteria present [1],reduction of total surface coverage compared to BLK [1],"effectiveness in reducing total surface coverage relative to CysC [1, 3]","nonviable cells (stained red) relative to CysC [1, 3]",total surface coverage of bacteria [2],proportion of non-viable bacteria [2],reduction in total bacteria compared with BLK [2],"effectiveness in reducing total surface coverage relative to CysC [2, 3]","nonviable cells (stained red) relative to CysC [2, 3]"
"CTLISWIKNKRKQRPRVSRRRRRRGGRRRR [CysN, melimine wherein an extra cysteine residue has been added to the N-terminus]",6.6%,40.6%,69.4%,approximately 2 times,~3 times,3.0%,13.0%,82.7%,approximately 4 times,approximately 8 times
"TLISWIKNKRKQCRPRVSRRRRRRGGRRRR [Cys13, melimine wherein an extra cysteine residue has been added to position 13]",7.1%,30.1%,67.4%,,,6.3%,9.8%,64.1%,,
"TLISWIKNKRKQRPRVSRRRRRRGGRRRRC [CysC, melimine wherein an extra cysteine residue has been added to the C-terminus]",11.3%,not statistically different to the controls,47.7%,,,11.8%,not different to the control,,,
